Structures can show the parent of a compound that is named as a salt. Where two headings read alike, the source gives them in different places.

This note sets out measurements from patent publication US10766903B2 (ALMAC DISCOVERY LIMITED, priority 2016, dated 2020).

This assay has as its target USP7 (Homo sapiens (Human), UniProt Q93009). Put plainly: USP7 fluorescence polarisation (FP) biochemical assay, ubiquitin-Lys-TAMRA substrate. How it is done:
Measurement of USP7 Inhibitory Activity
USP7 activity was monitored in a fluorescence polarisation (FP) homogeneous assay using the isopeptide ubiquitin-Lys-TAMRA substrate (U-558, Boston Biochem). Full-length USP7 was purchased from Boston Biochem (His6-USP7FL, E-519). Unless otherwise stated, all other reagents were purchased from Sigma-Aldrich. Enzymatic reactions were conducted in black flat-bottom polystyrene 384-well plates (Nunc) and 15 μL total volume. USP7 (2.5 nM, 5 μL) was incubated in assay buffer (50 mM HEPES (pH 7.2), 150 mM NaCl, 0.5 mM EDTA, 5 mM DTT, 0.05% BSA (w/v), 0.05% CHAPS) in the presence or absence of inhibitor (5 μl). Inhibitors were stored as 10 mM DMSO stocks in an inert environment (low humidity, dark, low oxygen, room temperature) using a Storage Pod System and serial dilutions were prepared in buffer just prior to the assay (from 200 to 0.1 μM, 8 dp curve). […] FP was measured every 15 min over a period of 1.5 h (within the linear range of the assay) using a Synergy 4 plate reader (BioTek) exciting at 530 nm and measuring the amount of parallel and perpendicular light at 575 nm. The FP signal was subsequently normalised to the control without compound present.
On the technique in general: Fluorescence polarisation rises when a labelled molecule tumbles more slowly, as on binding a larger partner.

Setting [1] is: USP7 IC50, Table 4, biochemical assay, average of at least duplicate experiments.
Where [2] appears, read: Table 4, biochemical assay, average of at least duplicate experiments, read-out: USP7 IC50.

Chain of USP7 (Q93009 whole entry): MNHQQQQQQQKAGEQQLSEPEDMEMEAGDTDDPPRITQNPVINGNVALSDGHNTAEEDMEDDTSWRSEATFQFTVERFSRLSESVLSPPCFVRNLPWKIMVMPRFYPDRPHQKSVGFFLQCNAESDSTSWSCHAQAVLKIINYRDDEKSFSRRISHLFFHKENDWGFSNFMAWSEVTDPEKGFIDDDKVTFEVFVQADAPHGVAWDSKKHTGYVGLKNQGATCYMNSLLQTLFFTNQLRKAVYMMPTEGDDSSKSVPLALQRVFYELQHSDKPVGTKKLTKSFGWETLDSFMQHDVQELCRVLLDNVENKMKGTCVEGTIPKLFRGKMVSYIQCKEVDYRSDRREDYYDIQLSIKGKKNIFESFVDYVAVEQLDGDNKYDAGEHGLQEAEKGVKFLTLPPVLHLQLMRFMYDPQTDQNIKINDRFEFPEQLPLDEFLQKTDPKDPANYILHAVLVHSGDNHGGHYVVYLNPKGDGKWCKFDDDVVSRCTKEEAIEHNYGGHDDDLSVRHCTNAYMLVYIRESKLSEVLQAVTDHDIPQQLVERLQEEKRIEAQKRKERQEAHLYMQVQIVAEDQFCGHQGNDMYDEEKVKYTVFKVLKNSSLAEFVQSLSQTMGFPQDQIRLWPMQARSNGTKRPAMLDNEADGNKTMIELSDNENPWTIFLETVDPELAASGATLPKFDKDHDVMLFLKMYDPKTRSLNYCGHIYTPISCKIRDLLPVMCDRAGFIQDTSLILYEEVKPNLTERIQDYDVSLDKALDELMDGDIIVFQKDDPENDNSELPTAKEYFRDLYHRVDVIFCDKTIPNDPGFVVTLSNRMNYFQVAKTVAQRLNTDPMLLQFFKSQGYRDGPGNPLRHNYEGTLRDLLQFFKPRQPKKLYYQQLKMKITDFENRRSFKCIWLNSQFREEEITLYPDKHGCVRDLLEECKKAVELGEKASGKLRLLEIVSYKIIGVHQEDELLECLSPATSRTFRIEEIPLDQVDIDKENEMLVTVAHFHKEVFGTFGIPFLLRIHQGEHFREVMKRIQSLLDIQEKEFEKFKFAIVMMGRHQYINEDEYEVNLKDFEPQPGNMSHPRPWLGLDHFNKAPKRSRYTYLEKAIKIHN

As usually defined, the IC50 is the concentration that inhibits the measured activity by half. Consider `C[C@H](CC(=O)N1CCC(O)(Cn2cnc(-c3ccn[nH]3)cc2=O)CC1)c1ccccc1` [Example 3, (R)-3-((4-Hydroxy-1-(3-phenylbutanoyl)piperidin-4-yl)methyl)-6-(1H-pyrazol-5-yl)pyrimidin-4(3H)-one], for which the IC50 under setting [1] fell in the range of 250 to 999 nM.
As to `O=C(CCC1CCC1)N1CCC(O)(Cn2cnc3c(nnn3-c3ccccc3)c2=O)CC1` [Example 186, 6-((1-(3-Cyclobutylpropanoyl)-4-hydroxypiperidin-4-yl)methyl)-3-phenyl-3H-[1,2,3]triazolo[4,5-d]pyrimidin-7(6H)-one], under setting [2], the half-maximal inhibitory concentration (IC50) was 1000 to 200000 nM.
Take `C[C@H](CC(=O)N1CCC(O)(Cn2cnc(Nc3ccc4c(c3)C3CCC4N3)cc2=O)CC1)c1ccccc1` (stereo partly drawn) [Example 42, 3-((4-Hydroxy-1-((R)-3-phenylbutanoyl)piperidin-4-yl)methyl)-6-((1,2,3,4-tetrahydro-1,4-epiminonaphthalen-6-yl)amino)pyrimidin-4(3H)-one hydrochloride]: the IC50 was in the range of 250 to 999 nM.
Regarding `C[C@H](CC(=O)N1CCC(O)(Cn2cnc(N[C@@H](Cc3ccccc3)CN3CCCC3)cc2=O)CC1)c1ccccc1` [Example 57, 3-((4-Hydroxy-1-((R)-3-phenylbutanoyl)piperidin-4-yl)methyl)-6-(((S)-1-phenyl-3-(pyrrolidin-1-yl)propan-2-yl)amino)pyrimidin-4(3H)-one, Formic Acid], the IC50 under setting [2] is 1000 to 200000 nM.
On the same count and under the same terms, the figure for `CC1(C(=O)N2CCC(O)(Cn3cnc4[nH]c(Cl)cc4c3=O)CC2)CC1` [Example 199, 6-Chloro-3-((4-hydroxy-1-(1-methylcyclopropanecarbonyl)piperidin-4-yl)methyl)-3H-pyrrolo[2,3d]pyrimidin-4(7H)-one] is 1000 to 200000 nM; for `C[C@H](CC(=O)N1CCC(O)(Cn2cnc(NCCN3CCC[C@H]3C)cc2=O)CC1)c1ccccc1` [Example 114, 3-((4-Hydroxy-1-((R)-3-phenylbutanoyl)piperidin-4-yl)methyl)-6-((2-((R)-2-methylpyrrolidin-1-yl)ethyl)amino)pyrimidin-4(3H)-one, Formic Acid] it is under 250 nM.
For `Cc1ccc([C@@H](CC(=O)N2CCC(O)(Cn3cnc4c(-c5ccc(CN)cc5)n(C)nc4c3=O)CC2)C(F)(F)F)s1` [Example 125, (S)-3-(4-(Aminomethyl)phenyl)-6-((4-hydroxy-1-(4,4,4-trifluoro-3-(5-methylthiophen-2-yl)butanoyl)piperidin-4-yl)methyl)-2-methyl-2H-pyrazolo[4,3-d]pyrimidin-7(6H)-one], the IC50 under setting [1] is 250 to 999 nM.
Consider `C[C@H](CC(=O)N1CCC(O)(Cn2cnc(-c3ccncc3)cc2=O)CC1)c1ccccc1` [Example 2, (R)-3-((4-Hydroxy-1-(3-phenylbutanoyl)piperidin-4-yl)methyl)-6-(pyridin-4-yl)pyrimidin-4(3H)-one], for which the IC50 under setting [2] lay within 1000 to 200000 nM.
`C[C@H](CC(=O)N1CCC(O)(Cn2cnc(/C=C/CN3CCCC3)cc2=O)CC1)c1ccccc1` [Example 51, (R,E)-3-((4-Hydroxy-1-(3-phenylbutanoyl)piperidin-4-yl)methyl)-6-(3-(pyrrolidin-1-yl)prop-1-en-1-yl)pyrimidin-4(3H)-one]: under setting [2], the IC50 is 1000 to 200000 nM.
Regarding `Cc1nc2c(=O)n(CC3(O)CCN(C(=O)C[C@@H](C)c4ccccc4)CC3)cnc2n1-c1ccc(CN)cc1` [Example 72, (R)-9-(4-(Aminomethyl)phenyl)-1-((4-hydroxy-1-(3-phenylbutanoyl)piperidin-4-yl)methyl)-8-methyl-1H-purin-6(9H)-one], under setting [2], the IC50 was under 250 nM.
As to `O=C(C[C@H](c1ccccc1)C(F)F)N1CCC(O)(Cn2cnc(NCCN3CCCC3)cc2=O)CC1` [Example 89, (R)-3-((1-(4,4-Difluoro-3-phenylbutanoyl)-4-hydroxypiperidin-4-yl)methyl)-6-((2-(pyrrolidin-1-yl)ethyl)amino)pyrimidin-4(3H)-one, Formic Acid], under setting [1], the IC50 fell in the range of 250 to 999 nM.
On to `O=C(c1cnc(C2CC2)o1)N1CCC(O)(Cn2cnc3c(cc(Cl)n3-c3cccc(C4CC4)c3)c2=O)CC1` [Example 217, 6-Chloro-3-((1-(2-cyclopropyloxazole-5-carbonyl)-4-hydroxypiperidin-4-yl)methyl)-7-(3-cyclopropylphenyl)-3H-pyrrolo[2,3-d]pyrimidin-4(7H)-one], for which the IC50 under setting [2] is under 250 nM.
On to `C[C@H](CC(=O)N1CCC(O)(Cn2cnc(N3CC(C(=O)NCC4CC4)C3)cc2=O)CC1)c1ccccc1` [Example 164, (R)-N-(cyclopropylmethyl)-1-(1-((4-hydroxy-1-(3-phenylbutanoyl)piperidin-4-yl)methyl)-6-oxo-1,6-dihydropyrimidin-4-yl)azetidine-3-carboxamide], for which, under setting [2], the IC50 lay within 1000 to 200000 nM.
The same measure, in the same setting: the figure for `O=C(C[C@H](c1ccccc1)C(F)(F)F)N1CCC(O)(Cn2cnc3c(ncn3-c3ccccc3)c2=O)CC1` [Example 128, (R)-1-((4-Hydroxy-1-(4,4,4-trifluoro-3-phenylbutanoyl)piperidin-4-yl)methyl)-9-phenyl-1H-purin-6(9H)-one] is 250 to 999 nM; for `C[C@H](CC(=O)N1CCC(O)(Cn2cnc3c(-c4ccncc4)n(C)nc3c2=O)CC1)c1ccccc1` [Example 26, (R)-6-((4-Hydroxy-1-(3-phenylbutanoyl)piperidin-4-yl)methyl)-2-methyl-3-(pyridin-4-yl)-2H-pyrazolo[4,3-d]pyrimidin-7(6H)-one] it is 250 to 999 nM.
As for `C[C@H](CC(=O)N1CCC(O)(Cn2cnc(NCCO)cc2=O)CC1)c1ccccc1` [Example 103, (R)-3-((4-Hydroxy-1-(3-phenylbutanoyl)piperidin-4-yl)methyl)-6-((2-hydroxyethyl)amino)pyrimidin-4(3H)-one], the IC50 under setting [2] lay within 1000 to 200000 nM.
For `COc1ccc(-n2c(Cl)cc3c(=O)n(CC4(O)CCN(C(=O)c5cnc(C6CC6)o5)CC4)cnc32)cc1OC` [Example 240, 6-Chloro-3-((1-(2-cyclopropyloxazole-5-carbonyl)-4-hydroxypiperidin-4-yl)methyl)-7-(3,4-dimethoxyphenyl)-3,7-dihydro-4H-pyrrolo[2,3-d]pyrimidin-4-one], under setting [2], the IC50 is under 250 nM.
The same measure, in the same setting: the figure for `Cn1cc(-c2cc(-n3c(Cl)cc4c(=O)n(CC5(O)CCN(C(=O)c6cnc(C7CC7)o6)CC5)cnc43)ccc2F)cn1` [Example 232, 6-Chloro-3-((1-(2-cyclopropyloxazole-5-carbonyl)-4-hydroxypiperidin-4-yl)methyl)-7-(4-fluoro-3-(1-methyl-1H-pyrazol-4-yl)phenyl)-3H-pyrrolo[2,3-d]pyrimidin-4(7H)-one] is under 250 nM.
With `C[C@H](CC(=O)N1CCC(O)(Cn2cnc(N3CC(N)C3)cc2=O)CC1)c1ccccc1` [Example 13, (R)-6-(3-Aminoazetidin-1-yl)-3-((4-hydroxy-1-(3-phenylbutanoyl)piperidin-4-yl)methyl)pyrimidin-4(3H)-one], the IC50 under setting [1] lay within 250 to 999 nM.
Regarding `C[C@H](CC(=O)N1CCC(O)(Cn2cnc(NC[C@H](C)N3CCCC3)cc2=O)CC1)c1ccccc1` [Example 59, 3-((4-Hydroxy-1-((R)-3-phenylbutanoyl)piperidin-4-yl)methyl)-6-(((S)-2-(pyrrolidin-1-yl)propyl)amino)pyrimidin-4(3H)-one, Formic Acid], under setting [2], the IC50 is under 250 nM.
Take `Cn1cc(C(=O)N2CCC(O)(Cn3cnc4c(cc(Cl)n4-c4ccc(Cl)cc4)c3=O)CC2)cn1` [Example 229, 6-Chloro-7-(4-chlorophenyl)-3-((4-hydroxy-1-(1-methyl-1H-pyrazole-4-carbonyl)piperidin-4-yl)methyl)-3H-pyrrolo[2,3-d]pyrimidin-4(7H)-one]: under setting [2], the IC50 fell in the range of 250 to 999 nM.
For `C[C@H](CC(=O)N1CCC(O)(Cn2cnc(OCCN(C)C)cc2=O)CC1)c1ccccc1` [Example 10, (R)-6-(2-(Dimethylamino)ethoxy)-3-((4-hydroxy-1-(3-phenylbutanoyl)piperidin-4-yl)methyl)pyrimidin-4(3H)-one], the IC50 was in the range of 1000 to 200000 nM.
Consider `NCc1ccc(-n2c(Cl)cc3c(=O)n(CC4(O)CCN(C(=O)c5cnc(C6CC6)o5)CC4)cnc32)cc1` [Example 242, 7-(4-(Aminomethyl)phenyl)-6-chloro-3-((1-(2-cyclopropyloxazole-5-carbonyl)-4-hydroxypiperidin-4-yl)methyl)-3,7-dihydro-4H-pyrrolo[2,3-d]pyrimidin-4-one], for which the IC50 under setting [2] is under 250 nM.
Still for that read-out and setting: to `Cn1nc2c(=O)n(CC3(O)CCN(C(=O)C[C@H](c4ccccc4)C(F)F)CC3)cnc2c1-c1ccc(CN)cc1` [Example 80, (R)-3-(4-(Aminomethyl)phenyl)-6-((1-(4,4-difluoro-3-phenylbutanoyl)-4-hydroxypiperidin-4-yl)methyl)-2-methyl-2H-pyrazolo[4,3-d]pyrimidin-7(6H)-one] belongs under 250 nM.
Turning to `Cn1nc2c(=O)n(CC3(O)CCN(C(=O)C[C@H](c4ccccc4)C(F)(F)F)CC3)cnc2c1-c1ccc([C@@H](N)C(F)(F)F)cc1` [Example 118, 3-(4-((R)-1-Amino-2,2,2-trifluoroethyl)phenyl)-6-((4-hydroxy-1-((R)-4,4,4-trifluoro-3-phenylbutanoyl)piperidin-4-yl)methyl)-2-methyl-2H-pyrazolo[4,3-d]pyrimidin-7(6H)-one], the IC50 under setting [1] fell in the range of 250 to 999 nM.
In the case of `C[C@H](CC(=O)N1CCC(O)(Cn2cnc(N)cc2=O)CC1)c1ccccc1` [Example 5, (R)-6-Amino-3-((4-hydroxy-1-(3-phenylbutanoyl)piperidin-4-yl)methyl)pyrimidin-4(3H)-one], the IC50 under setting [2] fell in the range of 1000 to 200000 nM.
